Patent US10376553B2, “Pharmaceutical composition for preventing and treating chronic obstructive lung disease containing, as active ingredient, Magnoliae flos extract, fraction, or active fraction thereof” (KOREA RESEARCH INSTITUTE OF BIOSCIENCE AND BIOTECHNOLOGY, priority 2015, dated 2019)

Assays:
H292 cells = assay: Cytotoxicity (CCK-8 cell viability) of the compounds of Magnoliae flos in H292 cells; format: cell-based, human; conditions: 24 h, vs 0.2% DMSO control = 100%
Experimental: Then, 10 μl of the CCK-8 solution (Dojindo Laboratories, Japan) was mixed with 90 μl of the medium, and 100 μl thereof was added per well. After incubation for a minimum of 30 minutes to a maximum of 4 hours, the absorbance was measured at 570 nm. The cell viability was calculated according to the following Equation 2 with a negative control group treated with 0.2% DMSO as a reference of 100%.
Cell viability=(Compound treated OD 570 nm value)×100/(Negative control group OD 570 nm value) [Equation 2]

MUC5AC protein = assay: Inhibition of MUC5AC protein production (immunoassay) by the compounds; format: cell-based, human; conditions: for MUC5AC secretion (Relative amount to TNF-α treated group, %) / Inhibition rate (%): TNF-α 20 ng/mL; for Inhibition rate (%): MUC5AC secretion; for production of MUC5AC (in words): vs TNF-α treated group = 100%
Experimental: For immunoassay of the resulting MUC5AC, the supernatant (50 uL) recovered was dispensed on to a 96-well plate and dried in a thermostat set at 50° C. It was washed with PBS supplemented with 1% BSA and reacted with an MUC5AC antibody (abcam, USA) at room temperature for 1 hour. A secondary antibody was dispensed thereto for reaction for 1 hour. It was washed again and then reacted with a 3,3′,5,5′-tetramethylbenzidine peroxide solution for 20 minutes. After the reaction was stopped with a sulfuric acid solution, the degree of color development was measured at 450 nm.
As a result, as shown in the following Table 6, the amount of MUCSAC secretion increased in the group treated with TNF-α.

MUC5AC promoters = assay: MUC5AC promoter luciferase reporter assay in H292 cells; format: cell-based, human; conditions: Table 7, MUC5AC promoter luciferase reporter, 10 μM, TNF-α 20 ng/mL
From the text: The degree of activation of luciferase was confirmed using a One-glow Luciferase Assay System (Promega).
As a result, as shown in the following Table 7, the activity of the MUC5AC promoters increased in the group treated with TNF-α.

[1] = test system: inflammatory cells in the bronchoalveolar lavage fluid; assay: Inflammatory cells in bronchoalveolar lavage fluid of the COPD mouse model (cigarette smoke + LPS); format: in vivo, C57BL/6N mice; conditions: BALF, vs COPD-induced group
Experimental: Six-week-old male SPF (specific pathogen-free) C57BL/6N mice (22 to 24 g) were supplied by Koatech (Korea). These animals were fed with a sufficient amount of solid feed (no antibiotics, Samyang Feed Co.) and water until the day of the experiment. They were allowed to adapt for 1 week in a light-dark cycle environment at a temperature of 22±2° C. and a humidity of 55±15%, and then subjected to the experiment.
The animal model was exposed to cigarette smoke to induce chronic obstructive pulmonary disease. 3R4F Kentuchy Reference Cigarettes as standard cigarettes for use to generate cigarette smoke were supplied by University of California (USA). The standard cigarettes contain 9.4 mg of tar, 11 mg of total particle matter (TPM), and 12 mg of carbon monoxide per 1 cigarette. The standard cigarettes were used after harmonization for 48 hours to 72 hours at a temperature of 22±1° C. and a humidity of 60±2%. Further, Cigarette Smoke Generator manufactured by Korea BioLink (Korea) was used for exposure to cigarette smoke. Cigarette smoke was inhaled for 1 hour (8 pcs/hour) for 7 days from 1 hour after oral administration of a sample. 10 μg of LPS (lipopolysaccharide) in PBS 50 μL was injected intranasally to each mouse on the 4th day of the experiment after the mouse was anesthetized with zoletyl 1 hour before the exposure to cigarette smoke. The smoking condition was 8 puffs per 1 standard cigarette (volume: 45 mL, duration: 2 seconds, and interval: 1 time/min).
The active fraction of Magnoliae flos (15, 30 mg/kg) and roflumilast (10 mg/kg) as therapeutic substances were dissolved in 0.5% sodium carboxymethyl cellulose and were orally administered 1 hour before the exposure to cigarette smoke.
The experimental groups were divided into (i) normal control (NC) group; (ii) cigarette smoke+LPS exposure group (COPD); (iii) experimental group administered with roflumilast (ROF) (10 mg/kg, p.o) 1 hour before the exposure to cigarette smoke+LPS; and (iv) experimental group administered with the active fraction of Magnoliae flos (15, 30 mg/kg, p.o; Magnoliae flos 15 and Magnoliae flos 30) 1 hour before the exposure to cigarette smoke+LPS. […] Then, they were administered in the same manner as above.
The bronchial alveolar lavage fluid was separated from the animal model treated with the active fraction and the compounds of Magnoliae flos in <Test Example 6-2> above in the following manner, and the number of inflammatory cells was measured.
Specifically, a mouse sonde was inserted into the bronchial tube, a 1 mL syringe containing 0.7 mL of DPBS (Dulbecco's Phosphate-Buffered Saline) was connected thereto, and DPBS was injected into the lung. The injected DPBS was recovered, and this procedure was repeated twice. The bronchoalveolar lavage fluid separated by DPBS was centrifuged at 1,500 rpm for 15 minutes to make a cell pellet. The supernatant was stored frozen at −70° C. for cytokine analysis. Each cell obtained was suspended in DPBS, attached to a slide glass using a cytospin centrifuge, and Diff-Quik stained. The number of inflammatory cells in each sample was counted through microscopic examination, and the inhibition rate was calculated according to the following Equation 3.
Inhibition rate=(Value of COPD-induced group−value of target substance administered group)×100/(Value of COPD-induced group) [Equation 3]

reactive oxygen species = assay: Production of active oxygen species in BALF of the COPD model (DCF-DA); format: in vivo, C57BL/6N mice; conditions: for rate of inhibiting reactive oxygen compared with ROF drug control group (in words): 30 mg/kg
Experimental: Production of active oxygen species in the bronchoalveolar lavage fluid obtained in <Test Example 6-3> above was confirmed by the following method.
Specifically, the separated BALF (200 μL) was treated to the final concentration of 20 μM of DCF-DA (dihydrodichlorofluorescein diacetate, Sigma-Aldrich, USA), followed by culturing for 30 minutes and measurement using Fluorescence (Molecular Device, USA). The inhibition rate was calculated by Equation 3 above.

IL-6 = IL-6 level in BALF of the COPD model (ELISA); format: in vivo, C57BL/6N mice; conditions: vs COPD-induced group; for IL-6 inhibition rate (%): BALF
Experimental: (§1) Cytokines were measured in the cell supernatant obtained in <Test Example 6-3> above by the following method. Specifically, the levels of IL-6 (R & D System, USA) and TNF-α (BD Bioscience, USA) in the separated BALF were measured by enzyme-linked immuno-sorbent assay (ELISA). Each cytokine analysis was carried out according to the manufacturer's test method.

TNF-α = TNF-α level in BALF of the COPD model (ELISA); format: in vivo, C57BL/6N mice; conditions: vs COPD-induced group; for TNF-α inhibition rate (%): BALF
Experimental: as §1

[2] = 15 mg/kg p.o., vs COPD-induced group
[3] = 30 mg/kg p.o., vs COPD-induced group

Row | SMILES | Viability of H292 cells (%, average ± deviation) (H292 cells; 2.5 μM) [%] | Viability of H292 cells (%, average ± deviation) (H292 cells; 5 μM) [%] | Viability of H292 cells (%, average ± deviation) (H292 cells; 10 μM) [%] | Inhibition rate (%) (MUC5AC protein; 2.5 μM) | Inhibition rate (%) (MUC5AC protein; 5 μM) | Inhibition rate (%) (MUC5AC protein; 10 μM) | production of MUC5AC (in words) (MUC5AC protein) | Inhibition rate (%) (MUC5AC promoters) | Inhibition rate of inflammatory cell infiltration (%) Macrophage ([1]; 15 mg/kg p.o.) [%] | Inhibition rate of inflammatory cell infiltration (%) Neutrophil ([1]; 15 mg/kg p.o.) [%] | Inhibition rate of inflammatory cell infiltration (%) Total inflammatory cells ([1]; 15 mg/kg p.o.) [%] | Inhibition rate of inflammatory cell infiltration (%) Macrophage ([1]; 30 mg/kg p.o.) [%] | Inhibition rate of inflammatory cell infiltration (%) Neutrophil ([1]; 30 mg/kg p.o.) [%] | Inhibition rate of inflammatory cell infiltration (%) Total inflammatory cells ([1]; 30 mg/kg p.o.) [%] | Active oxygen inhibition rate (%) (reactive oxygen species; [2]) | Active oxygen inhibition rate (%) (reactive oxygen species; [3]) | IL-6 inhibition rate (%) (IL-6; 15 mg/kg p.o.) | IL-6 inhibition rate (%) (IL-6; 30 mg/kg p.o.) | TNF-α inhibition rate (%) (TNF-α; 15 mg/kg p.o.) | TNF-α inhibition rate (%) (TNF-α; 30 mg/kg p.o.) | also measured
1 | COc1ccc([C@H]2OC[C@H]3[C@@H]2CO[C@@H]3c2cc(OC)c(OC)c(OC)c2)cc1OC [Compound S2, magnolin] | 121.81 ± 2.42 | 119.94 ± 2.81 | 118.37 ± 2.55 | 2.43 | 18.83 | 34.33 | inhibited in a manner depending on the concentrations | 55.2 | 21.6 ± 6.3 | 47.2 ± 3.6 | 44.7 ± 3.9 | 10.7 ± 9.8 | 31.0 ± 7.1 | 30.7 ± 5.3 | 21.8 ± 4.4 | 14.0 ± 8.3 | 64.9 ± 4.8 | 36.6 ± 8.9 | 29.2 ± 4.8 | 31.0 ± 7.2 | Viability of H292 cells (%, average ± deviation) (H292 cells; 20 μM): 112.99 ± 4.16%; MUC5AC secretion (Relative amount to TNF-α treated group, %) (MUC5AC protein; 2.5 μM): 97.57 ± 0.78%; MUC5AC secretion (Relative amount to TNF-α treated group, %) (MUC5AC protein; 5 μM): 81.17 ± 0.82%; MUC5AC secretion (Relative amount to TNF-α treated group, %) (MUC5AC protein; 10 μM): 65.67 ± 0.99%; production of MUC5AC (in words) (MUC5AC protein; listed as Formula 3): inhibited the production of MUC5AC in a manner depending on concentration; MUC5AC secretion (Relative amount to TNF-α treated group, %) (MUC5AC promoters): 44.8 ± 7.33%; rate of inhibiting reactive oxygen compared with ROF drug control group (in words) (reactive oxygen species): higher rates of inhibiting reactive oxygen than that of the drug control group treated with ROF
2 | COc1cc([C@H]2OC[C@H]3[C@@H]2CO[C@@H]3c2cc(OC)c(OC)c(OC)c2)cc(OC)c1OC [Compound S3, dimethylliroresinol] | 100.55 ± 1.26 |  |  | 2.5 | 29.38 | 30.34 | inhibited in a manner depending on the concentrations | 56.27 | 19.4 ± 5.4 | 17.9 ± 6.6 | 23.3 ± 5.5 | 33.2 ± 6.2 | 42.1 ± 3.9 | 43.5 ± 3.4 | 15.1 ± 4.7 | 32.5 ± 3.1 | 45.9 ± 6.2 | 43.9 ± 6.5 | 26.7 ± 7.0 | 41.7 ± 4.4 | production of MUC5AC (in words) (MUC5AC protein; listed as Formula 4): inhibited the production of MUC5AC in a manner depending on concentration; increase in inflammatory cells (in words) [1]: effectively inhibited; production of active oxygen species (in words) (reactive oxygen species; 15 and 30 mg/kg, vs COPD-induced group): relatively higher inhibition rates in a manner depending on concentration; TNF-α secretion in the bronchoalveolar lavage fluid (in words) (TNF-α): concentration-dependent inhibition
3 | COc1ccc([C@H]2OC[C@H]3[C@@H]2CO[C@H]3c2cc(OC)c(OC)c(OC)c2)cc1OC [Compound S4, epimagnolin] | 99.81 ± 2.15 | 100.74 ± 2.84 | 99.45 ± 1.53 | 9.45 | 25.76 | 36.29 | inhibited in a manner depending on the concentrations | 63.2 | 0.0 ± 0.0 | 13.8 ± 4.9 | 14.0 ± 5.1 | 21.4 ± 6.5 | 25.7 ± 5.5 | 29.1 ± 4.4 | 13.5 ± 4.3 | 15.9 ± 4.2 | 0.0 ± 0.0 | 40.3 ± 3.7 | 13.8 ± 5.5 | 24.7 ± 6.5 | Viability of H292 cells (%, average ± deviation) (H292 cells; 20 μM): 97.20 ± 1.99%; MUC5AC secretion (Relative amount to TNF-α treated group, %) (MUC5AC protein; 2.5 μM): 90.55 ± 2.59%; MUC5AC secretion (Relative amount to TNF-α treated group, %) (MUC5AC protein; 5 μM): 74.24 ± 2.83%; MUC5AC secretion (Relative amount to TNF-α treated group, %) (MUC5AC protein; 10 μM): 63.71 ± 1.27%; production of MUC5AC (in words) (MUC5AC protein; listed as Formula 5): inhibited the production of MUC5AC in a manner depending on concentration; MUC5AC secretion (Relative amount to TNF-α treated group, %) (MUC5AC promoters): 36.8 ± 6.97%; rate of inhibiting reactive oxygen compared with ROF drug control group (in words) (reactive oxygen species): higher rates of inhibiting reactive oxygen than that of the drug control group treated with ROF; IL-6 in the bronchoalveolar lavage fluid (in words) (IL-6): concentration-dependent decrease; TNF-α secretion in the bronchoalveolar lavage fluid (in words) (TNF-α): concentration-dependent inhibition
